Eleven compounds from patent US20110319411A1, “ISOINDOLINONE AND RELATED ANALOGS AS SIRTUIN MODULATORS” (Sirtis Pharmaceuticals, Inc., priority 2008, published 2011) can be followed below.

The structures appear in SMILES notation.

For this test, the target named is T1, SIRT1 (Homo sapiens, UniProt Q96EB6).
T1 construct: made in house; host or cells: E. coli BL21(DE3)
T1 sequence (Q96EB6 1-747): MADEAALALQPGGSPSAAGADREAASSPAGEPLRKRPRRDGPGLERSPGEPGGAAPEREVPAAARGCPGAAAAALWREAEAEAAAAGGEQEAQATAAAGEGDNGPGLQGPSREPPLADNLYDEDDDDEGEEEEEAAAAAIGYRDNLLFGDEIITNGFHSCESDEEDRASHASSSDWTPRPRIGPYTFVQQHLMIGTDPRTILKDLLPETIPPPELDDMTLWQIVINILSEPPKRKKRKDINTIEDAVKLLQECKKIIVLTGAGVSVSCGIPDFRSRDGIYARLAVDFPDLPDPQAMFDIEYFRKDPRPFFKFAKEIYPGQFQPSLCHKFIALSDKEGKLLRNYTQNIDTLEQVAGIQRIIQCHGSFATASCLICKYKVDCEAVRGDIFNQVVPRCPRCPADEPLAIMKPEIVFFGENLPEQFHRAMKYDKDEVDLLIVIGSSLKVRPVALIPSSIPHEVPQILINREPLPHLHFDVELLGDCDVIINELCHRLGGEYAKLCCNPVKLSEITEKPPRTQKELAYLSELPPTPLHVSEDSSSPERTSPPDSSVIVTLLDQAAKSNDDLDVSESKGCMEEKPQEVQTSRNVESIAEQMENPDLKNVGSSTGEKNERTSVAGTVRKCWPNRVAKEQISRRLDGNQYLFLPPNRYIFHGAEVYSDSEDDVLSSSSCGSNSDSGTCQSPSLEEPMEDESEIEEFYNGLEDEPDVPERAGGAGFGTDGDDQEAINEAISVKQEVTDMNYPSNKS
Description: mass spectrometry based assay to identify modulators of SIRT1 activity. The class given is biochemical. As to conditions: 10 nM SIRT1, 0.5 μM peptide substrate, 120 μM βNAD+, 25 minutes at 25° C.; for Emax: 25 min, read-out: % FOLD ACT. (percent maximum fold activation). An excerpt: A mass spectrometry based assay was used to identify modulators of SIRT1 activity. The mass spectrometry based assay utilizes a peptide having 20 amino acid residues as follows: Ac-EE-K(biotin)-GQSTSSHSK(Ac)NleSTEG-K(5TMR)-EE-NH2 (SEQ ID NO: 1) wherein K(Ac) is an acetylated lysine residue and Nle is a norleucine. The peptide is labeled with the fluorophore 5TMR (excitation 540 nm/emission 580 nm) at the C-terminus. The sequence of the peptide substrate is based on p53 with several modifications. In addition, the methionine residue naturally present in the sequence was replaced with the norleucine because the methionine may be susceptible to oxidation during synthesis and purification.
The mass spectrometry assay is conducted as follows: 0.5 μM peptide substrate and 120 μM βNAD^+ is incubated with 10 nM SIRT1 for 25 minutes at 25° C. in a reaction buffer (50 mM Tris-acetate pH 8, 137 mM NaCl, 2.7 mM KCl, 1 mM MgCl2, 5 mM DTT, 0.05% BSA). Test compounds may be added to the reaction as described above. The SirT1 gene is cloned into a T7-promoter containing vector and transformed into BL21(DE3). After the 25 minute incubation with SIRT1, 10 μL of 10% formic acid is added to stop the reaction. Reactions are sealed and frozen for later mass spec analysis. Determination of the mass of the substrate peptide allows for precise determination of the degree of acetylation (i.e. starting material) as compared to deacetylated peptide (product).
A control for inhibition of sirtuin activity is conducted by adding 1 μL of 500 mM nicotinamide as a negative control at the start of the reaction (e.g., permits determination of maximum sirtuin inhibition). A control for activation of sirtuin activity is conducted using 10 nM of sirtuin protein, with 1 μL of DMSO in place of compound, to determine the amount of deacetylation of the substrate at a given timepoint within the linear range of the assay. This timepoint is the same as that used for test compounds and, within the linear range, the endpoint represents a change in velocity.
For the above assay, SIRT1 protein was expressed and purified as follows. The SirT1 gene was cloned into a T7-promoter containing vector and transformed into BL21(DE3). The protein was expressed by induction with 1 mM IPTG as an N-terminal His-tag fusion protein at 18° C. overnight and harvested at 30,000×g. Cells were lysed with lysozyme in lysis buffer (50 mM Tris-HCl, 2 mM Tris[2-carboxyethyl]phosphine (TCEP), 10 μM ZnCl2, 200 mM NaCl) and further treated with sonication for 10 min for complete lysis. The protein was purified over a Ni-NTA column (Amersham) and fractions containing pure protein were pooled, concentrated and run over a sizing column (Sephadex S200 26/60 global). The peak containing soluble protein was collected and run on an Ion-exchange column (MonoQ). Gradient elution (200 mM-500 mM NaCl) yielded pure protein. This protein was concentrated and dialyzed against dialysis buffer (20 mM Tris-HCl, 2 mM TCEP) overnight. The protein was aliquoted and frozen at −80° C. until further use.
Sirtuin modulating compounds that activated SIRT1 were identified using the assay described above and are shown below in Table 1. The EC1.5 values represent the concentration of test compounds that result in 150% activation of SIRT1. The EC1.5 values for the activating compounds are represented by A (EC1.5<10 μM), B (EC1-5 10-25 μM), C (EC1.5>25 μM). The percent maximum fold activation is represented by A (Fold activation >200%) or B (Fold Activation <200%).

As to `O=C(Nc1cccc2c1C(=O)N(c1cccc(C(F)(F)F)c1)C2)c1cncs1` [Compound 128], the “EC1.5 (concentration of test compound that results in 150% activation of SIRT1)” value was “C (EC1.5>25 μM)” and the Emax is < 200%.
With `O=C(Nc1cccc2c1C(=O)N(c1cccc(C(F)(F)F)c1)C2)c1cccc(OCC(O)CO)n1` (stereo not shown) [Compound 129, 6-(2,3-dihydroxypropoxy)-N-(3-oxo-2-(3-(trifluoromethyl)phenyl)isoindolin-4-yl)picolinamide], the “EC1.5 (concentration of test compound that results in 150% activation of SIRT1)” value is listed as “C (EC1.5>25 μM)” and the Emax was < 200%.
As to `O=C(Nc1cccc2c1C(=O)N(c1cccc(C(F)(F)F)c1)C2)c1cccc(CN2CCOCC2)n1` [Compound 130, 6-(morpholinomethyl)-N-(3-oxo-2-(3-(trifluoromethyl)phenyl)isoindolin-4-yl)picolinamide], the “EC1.5 (concentration of test compound that results in 150% activation of SIRT1)” value is “A (EC1.5<10 μM)” and the Emax is < 200%.
For `O=C(Nc1cccc2c1C(=O)N(c1cccc(OC(F)(F)F)c1)C2)c1cccc(OCC(O)CO)n1` (stereo not shown) [Compound 131], in that order: “C (EC1.5>25 μM)” and < 200%.
For `O=C(Nc1cccc2c1C(=O)N(c1cccc(OC(F)(F)F)c1)C2)c1cccc(CN2CCOCC2)n1` [Compound 132], in that order: “A (EC1.5<10 μM)” and < 200%.
On to `O=C(Nc1cccc2c1C(=O)N(c1cccc(C(F)(F)F)c1)C2)c1nccs1` [Compound 133], for which the “EC1.5 (concentration of test compound that results in 150% activation of SIRT1)” value is recorded as “C (EC1.5>25 μM)” and the Emax is < 200%.
For `O=C(Nc1cccc2c1C(=O)N(c1cccc(C(F)(F)F)c1)C2)c1cccnn1` [Compound 134], in that order: “C (EC1.5>25 μM)” and < 200%.
As to `O=C(Nc1cccc2c1C(=O)N(c1cccc(C(F)(F)F)c1)C2)c1cccc(N2CCOCC2)n1` [Compound 135], the “EC1.5 (concentration of test compound that results in 150% activation of SIRT1)” value is on record as “C (EC1.5>25 μM)” and the Emax was < 200%.
Turning to `O=C(Nc1cccc2c1C(=O)N(c1cccc(C(F)(F)F)c1)C2)c1cccc(N2CCCC2)n1` [Compound 136], the “EC1.5 (concentration of test compound that results in 150% activation of SIRT1)” value was “C (EC1.5>25 μM)” and the Emax was < 200%.
With `O=C(Nc1cccc2c1C(=O)N(c1cccc(C(F)(F)F)c1)C2)c1cncc(N2CCOCC2)n1` [Compound 137], the “EC1.5 (concentration of test compound that results in 150% activation of SIRT1)” value is reported as “C (EC1.5>25 μM)” and the Emax is < 200%.
Taken in the same sequence, the figures for `O=C(Nc1cccc2c1C(=O)N(c1cccc(C(F)(F)F)c1)C2)c1cccc(C2CCNC2)c1` (stereo not shown) [Compound 138] were “A (EC1.5<10 μM)” and > 200%.
